Laboratory results published in ChEMBL document CHEMBL1152667, “Synthesis and radiopharmacological investigation of 3-[4'-[(18)F]fluorobenzylidene]indolin-2-one as possible tyrosine kinase inhibitor” (Bioorg Med Chem, 2009).

Experiments:
Thymus [1] = assay: Biodistribution in Wistar rat thymus at 1.7 MBq, iv administered as single dose measured after 5 mins post-injection by gamma counting; assay type: ADME, organism-based; settings: in vivo
Intestine = assay: Biodistribution in Wistar rat intestine at 1.7 MBq, iv administered as single dose measured after 5 mins post-injection by gamma counting; assay type: ADME, organism-based; settings: in vivo
[2] = Biodistribution in Wistar rat urine at 1.7 MBq, iv administered as single dose measured after 5 mins post-injection by gamma counting; assay type: ADME, organism-based; settings: in vivo
[3] = Biodistribution in Wistar rat thyroid gland at 1.7 MBq, iv administered as single dose measured after 10 mins post-injection by gamma counting; assay type: ADME, organism-based; settings: in vivo
Femur [4] = assay: Biodistribution in Wistar rat femur at 1.7 MBq, iv administered as single dose measured after 10 mins post-injection by gamma counting; assay type: ADME, organism-based; settings: in vivo
[5] = Biodistribution in Wistar rat urine at 1.7 MBq, iv administered as single dose measured after 10 mins post-injection by gamma counting; assay type: ADME, organism-based; settings: in vivo
Kidney [6] = assay: Biodistribution in Wistar rat kidney at 1.7 MBq, iv administered as single dose measured after 30 mins post-injection by gamma counting; assay type: ADME, organism-based; settings: in vivo, 0.5 h
Heart [7] = assay: Biodistribution in Wistar rat heart at 1.7 MBq, iv administered as single dose measured after 30 mins post-injection by gamma counting; assay type: ADME, organism-based; settings: in vivo, 0.5 h
Thymus [8] = assay: Biodistribution in Wistar rat thymus at 1.7 MBq, iv administered as single dose measured after 30 mins post-injection by gamma counting; assay type: ADME, organism-based; settings: in vivo, 0.5 h
[9] = Ratio of drug level in pancreas to blood in Wistar rat at 1.7 MBq, iv administered as single dose measured after 60 mins post-injection; assay type: ADME, organism-based
[10] = Ratio of drug level in lung to blood in Wistar rat at 1.7 MBq, iv administered as single dose measured after 60 mins post-injection; assay type: ADME, organism-based
[11] = Metabolic stability in Wistar rat blood assessed as compound remaining at 0.5 MBq after 60 mins by radio-HPLC analysis; assay type: ADME, tissue-based; settings: read-out: Stability
Femur [12] = assay: Biodistribution in Wistar rat femur at 1.7 MBq, iv administered as single dose measured after 30 mins post-injection by gamma counting; assay type: ADME, organism-based; settings: in vivo, 0.5 h
Adrenal gland [13] = assay: Biodistribution in Wistar rat adrenal gland at 1.7 MBq, iv administered as single dose measured after 60 mins post-injection by gamma counting; assay type: ADME, organism-based; settings: in vivo, 1 h
Testes = assay: Biodistribution in Wistar rat testes at 1.7 MBq, iv administered as single dose measured after 60 mins post-injection by gamma counting; assay type: ADME, organism-based, Testis; settings: in vivo, 1 h
[14] = Biodistribution in Wistar rat urine at 1.7 MBq, iv administered as single dose measured after 60 mins post-injection by gamma counting; assay type: ADME, organism-based; settings: in vivo, 1 h
[15] = Ratio of drug level in liver to blood in Wistar rat at 1.7 MBq, iv administered as single dose measured after 5 mins post-injection; assay type: ADME, organism-based
[16] = Ratio of drug level in adrenal gland to blood in Wistar rat at 1.7 MBq, iv administered as single dose measured after 60 mins post-injection; assay type: ADME, organism-based
Kidney [17] = assay: Biodistribution in Wistar rat kidney assessed as standard uptake value at 1.7 MBq, iv administered as single dose measured after 30 mins post-injection by gamma counting; assay type: ADME, organism-based; settings: in vivo, 0.5 h
Blood = assay: Biodistribution in Wistar rat blood assessed as standard uptake value at 1.7 MBq, iv administered as single dose measured after 1 min post-injection by gamma counting; assay type: ADME, organism-based; settings: in vivo
Harderian gland [18] = assay: Biodistribution in Wistar rat harderian gland assessed as standard uptake value at 1.7 MBq, iv administered as single dose measured after 1 min post-injection by gamma counting; assay type: ADME, organism-based; settings: in vivo
Liver [19] = assay: Biodistribution in Wistar rat liver assessed as standard uptake value at 1.7 MBq, iv administered as single dose measured after 1 min post-injection by gamma counting; assay type: ADME, organism-based; settings: in vivo
Lung [20] = assay: Biodistribution in Wistar rat lung assessed as standard uptake value at 1.7 MBq, iv administered as single dose measured after 30 mins post-injection by gamma counting; assay type: ADME, organism-based; settings: in vivo, 0.5 h
Liver [21] = assay: Biodistribution in Wistar rat liver assessed as standard uptake value at 1.7 MBq, iv administered as single dose measured after 30 mins post-injection by gamma counting; assay type: ADME, organism-based; settings: in vivo, 0.5 h
[22] = Biodistribution in Wistar rat hair/skin assessed as standard uptake value at 1.7 MBq, iv administered as single dose measured after 60 mins post-injection by gamma counting; assay type: ADME, organism-based; settings: in vivo, 1 h
Adrenal gland [23] = assay: Biodistribution in Wistar rat adrenal gland assessed as standard uptake value at 1.7 MBq, iv administered as single dose measured after 60 mins post-injection by gamma counting; assay type: ADME, organism-based; settings: in vivo, 1 h
Kidney [24] = assay: Biodistribution in Wistar rat kidney assessed as standard uptake value at 1.7 MBq, iv administered as single dose measured after 60 mins post-injection by gamma counting; assay type: ADME, organism-based; settings: in vivo, 1 h
Muscle tissue [25] = assay: Biodistribution in Wistar rat muscle assessed as standard uptake value at 1.7 MBq, iv administered as single dose measured after 60 mins post-injection by gamma counting; assay type: ADME, organism-based; settings: in vivo, 1 h
Lung [26] = assay: Biodistribution in Wistar rat lung assessed as standard uptake value at 1.7 MBq, iv administered as single dose measured after 60 mins post-injection by gamma counting; assay type: ADME, organism-based; settings: in vivo, 1 h
Harderian gland [27] = assay: Biodistribution in Wistar rat harderian gland assessed as standard uptake value at 1.7 MBq, iv administered as single dose measured after 60 mins post-injection by gamma counting; assay type: ADME, organism-based; settings: in vivo, 1 h
Spleen = assay: Biodistribution in Wistar rat spleen assessed as standard uptake value at 1.7 MBq, iv administered as single dose measured after 5 mins post-injection by gamma counting; assay type: ADME, organism-based; settings: in vivo
Kidney [28] = assay: Biodistribution in Wistar rat kidney assessed as standard uptake value at 1.7 MBq, iv administered as single dose measured after 5 mins post-injection by gamma counting; assay type: ADME, organism-based; settings: in vivo
Muscle tissue [29] = assay: Biodistribution in Wistar rat muscle assessed as standard uptake value at 1.7 MBq, iv administered as single dose measured after 5 mins post-injection by gamma counting; assay type: ADME, organism-based; settings: in vivo
Harderian gland [30] = assay: Biodistribution in Wistar rat harderian gland assessed as standard uptake value at 1.7 MBq, iv administered as single dose measured after 5 mins post-injection by gamma counting; assay type: ADME, organism-based; settings: in vivo
[31] = Biodistribution in Wistar rat hair/skin assessed as standard uptake value at 1.7 MBq, iv administered as single dose measured after 10 mins post-injection by gamma counting; assay type: ADME, organism-based; settings: in vivo
Adrenal gland [32] = assay: Biodistribution in Wistar rat adrenal gland at 1.7 MBq, iv administered as single dose measured after 1 min post-injection by gamma counting; assay type: ADME, organism-based; settings: in vivo
Heart [33] = assay: Biodistribution in Wistar rat heart at 1.7 MBq, iv administered as single dose measured after 1 min post-injection by gamma counting; assay type: ADME, organism-based; settings: in vivo
Pancreas [34] = assay: Biodistribution in Wistar rat pancreas assessed as standard uptake value at 1.7 MBq, iv administered as single dose measured after 10 mins post-injection by gamma counting; assay type: ADME, organism-based; settings: in vivo
Kidney [35] = assay: Biodistribution in Wistar rat kidney assessed as standard uptake value at 1.7 MBq, iv administered as single dose measured after 10 mins post-injection by gamma counting; assay type: ADME, organism-based; settings: in vivo
Harderian gland [36] = assay: Biodistribution in Wistar rat harderian gland assessed as standard uptake value at 1.7 MBq, iv administered as single dose measured after 10 mins post-injection by gamma counting; assay type: ADME, organism-based; settings: in vivo
Harderian gland [37] = assay: Biodistribution in Wistar rat harderian gland at 1.7 MBq, iv administered as single dose measured after 1 min post-injection by gamma counting; assay type: ADME, organism-based; settings: in vivo
Pancreas [38] = assay: Biodistribution in Wistar rat pancreas at 1.7 MBq, iv administered as single dose measured after 5 mins post-injection by gamma counting; assay type: ADME, organism-based; settings: in vivo

O=C1Nc2ccccc2/C1=C/c1ccc([18F])cc1
Drug uptake (Thymus [1]): 0.34 %ID | Drug uptake (Intestine): 13.96 %ID | Drug uptake [2]: 2.39 %ID | Drug uptake [3]: 0.05 %ID | Drug uptake (Femur [4]): 0.32 %ID | Drug uptake [5]: 6.98 %ID | Drug uptake (Kidney [6]): 1.45 %ID | Drug uptake (Heart [7]): 0.18 %ID | Drug uptake (Thymus [8]): 0.08 %ID | Kp at 1 h [9]: 2.1 | Kp at 1 h [10]: 1.4 | remaining at 1 h, 0.5 MBq [11]: 84% | Drug uptake (Femur [12]): 0.13 %ID | Drug uptake (Adrenal gland [13]): 0.04 %ID | Drug uptake (Testes): 0.24 %ID | Drug uptake [14]: 43.53 %ID | Kp at 5 min [15]: 6.7 | Kp at 1 h [16]: 8.9 | SUV (Kidney [17]): 1.69% | SUV (Blood): 0.83% | SUV (Harderian gland [18]): 1.92% | SUV (Liver [19]): 2.98% | SUV (Lung [20]): 0.47% | SUV (Liver [21]): 1.68% | SUV [22]: 0.19% | SUV (Adrenal gland [23]): 1.11% | SUV (Kidney [24]): 0.99% | SUV (Muscle tissue [25]): 0.19% | SUV (Lung [26]): 0.27% | SUV (Harderian gland [27]): 0.46% | SUV (Spleen): 0.79% | SUV (Kidney [28]): 2.64% | SUV (Muscle tissue [29]): 0.83% | SUV (Harderian gland [30]): 2.43% | SUV [31]: 0.74% | Drug uptake (Adrenal gland [32]): 0.15 %ID | Drug uptake (Heart [33]): 1.01 %ID | SUV (Pancreas [34]): 1.13% | SUV (Kidney [35]): 2.27% | SUV (Harderian gland [36]): 1.91% | Drug uptake (Harderian gland [37]): 0.29 %ID | Drug uptake (Pancreas [38]): 0.38 %ID
